SMILES strings stand for the structures. pIC50: −log10 of the molar value. Like-named read-outs stand apart in the source and are kept apart here.

In assay [1] the test system is nuclear symmetric Arginine dimethylation in A549 cells. As to the kind of experiment: PD assay (assay 2): inhibition of nuclear symmetric Arginine dimethylation (SYM10 immunohistochemistry), 48 h. In kind it is cell-based. Particulars: Homo sapiens. A digest of the protocol: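 Cells seeded at 400/well overnight, then treated 48 h at 37 °C, final DMSO 0.2%. Fixed and stained with SYM10 antibody plus Alexa 488 secondary, Hoechst and CellMask, then imaged on Opera. Normalized to DMSO (high) and 10 μM reference compound (low); averaged pIC50 reported.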

The target in assay [2] is T1, PRMT5-MEP50 enzyme (Homo sapiens, UniProt O14744).
T1 construct: One virus expresses full length human PRMT5 with Flag-tag at N-terminus; Flag (N); purchased Charles River (Argenta); host or cells: insect cells (Sf9), baculovirus co-infection
As to the kind of experiment: In vitro assay 1a: high throughput mass spectrometer assay of SAH formation, 10 nM enzyme, 60 min. In kind it is biochemical. Particulars: averaged values, PRMT5-MEP50, 10 nM enzyme; for IC50: read-out: pIC50 Assay 1a (converted). A digest of the protocol: (§1)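 Flag-PRMT5/His-MEP50 complex from Sf9 cells, with 1 μM SAM and 0.3 μM full-length histone H2A in pH 8.5 Tris buffer, at 30 °C; 10 nM enzyme for 60 min (1a) or 1.25 nM for 120 min (1b). Formic acid-quenched SAH read by RapidFire MS/MS; 11-point IC50 with Hill fit.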

Assay [3] deals with T1, PRMT5-MEP50 enzyme. As to the kind of experiment: In vitro assay 1b: high throughput mass spectrometer assay of SAH formation, 1.25 nM enzyme, 120 min. As to conditions: for IC50: averaged values, PRMT5-MEP50, 1.25 nM enzyme, 120 min, read-out: pIC50 Assay 1b (converted). In kind it is biochemical. The method in brief:
as §1

The mark [4] stands for this setting: A549, averaged values, PD assay, A549 cells, symmetric Arginine dimethylation, read-out: pIC50 Assay 2 (converted).
Where [5] appears, read: A549, read-out: pIC50 Assay 2 (converted).

T1 sequence (O14744 whole entry): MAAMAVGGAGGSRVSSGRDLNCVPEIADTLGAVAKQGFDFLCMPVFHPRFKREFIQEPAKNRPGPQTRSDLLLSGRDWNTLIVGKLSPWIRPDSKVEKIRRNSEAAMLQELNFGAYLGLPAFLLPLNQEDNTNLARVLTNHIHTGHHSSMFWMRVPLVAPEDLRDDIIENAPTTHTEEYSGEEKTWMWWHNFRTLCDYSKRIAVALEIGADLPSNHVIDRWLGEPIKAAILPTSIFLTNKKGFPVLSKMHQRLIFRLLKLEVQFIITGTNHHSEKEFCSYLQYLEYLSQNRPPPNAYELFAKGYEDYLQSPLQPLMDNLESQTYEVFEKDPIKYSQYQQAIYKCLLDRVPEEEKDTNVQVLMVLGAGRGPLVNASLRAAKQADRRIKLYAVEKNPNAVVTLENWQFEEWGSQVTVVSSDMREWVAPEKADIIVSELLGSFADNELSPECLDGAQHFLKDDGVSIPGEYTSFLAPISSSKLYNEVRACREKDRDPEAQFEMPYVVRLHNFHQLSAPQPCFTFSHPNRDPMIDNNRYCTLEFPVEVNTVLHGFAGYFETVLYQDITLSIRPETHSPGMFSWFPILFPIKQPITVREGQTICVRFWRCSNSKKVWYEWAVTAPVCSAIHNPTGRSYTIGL
T1 sequence (Q9BQA1 whole entry partner): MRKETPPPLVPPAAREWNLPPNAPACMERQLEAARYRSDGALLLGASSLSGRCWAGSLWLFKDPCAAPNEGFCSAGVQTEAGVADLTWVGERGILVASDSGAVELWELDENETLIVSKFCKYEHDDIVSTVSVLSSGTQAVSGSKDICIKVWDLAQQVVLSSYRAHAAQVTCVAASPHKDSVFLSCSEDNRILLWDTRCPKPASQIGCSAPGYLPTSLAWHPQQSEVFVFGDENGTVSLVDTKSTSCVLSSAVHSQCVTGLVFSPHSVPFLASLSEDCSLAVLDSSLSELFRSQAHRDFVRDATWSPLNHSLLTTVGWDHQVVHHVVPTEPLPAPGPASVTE

With `Nc1ncnc2c1ccn2[C@@H]1C[C@H](CCc2ccc3cnc(NC4CC4)nc3c2)[C@@H](O)[C@H]1O` [Compound 145], the IC50 in assay [1] (setting [4]) was 79.4 nM; in assay [2], 15.8 nM; in assay [3], 79.4 nM.
Take `Nc1ncnc2c1ccn2[C@@H]1O[C@H](COc2ccc3ccc(NCc4ccccc4)nc3c2)[C@@H](O)[C@H]1O` [Compound 107]: the IC50 in assay [1] (setting [4]) was 3.98 nM; in assay [2] it was 1.26 nM; in assay [3] it was 3.98 nM.
Consider `Nc1ncnc2c1ccn2[C@@H]1O[C@H](COc2ccc3cc(C(F)(F)F)cnc3c2)[C@@H](O)[C@H]1O` [Compound 27], for which the IC50 is ~1150 nM in assay [1] (setting [4]), 398 nM in assay [2] and 794 nM in assay [3].
On to `O[C@@H]1[C@H](O)[C@@H](COc2ccc3ccc(NCc4ccc(Cl)cc4)nc3c2)O[C@H]1n1ccc2c(Cl)ncnc21` [Compound 131], for which the IC50 in assay [1] (setting [4]) was ~66.1 nM; in assay [2], 7.94 nM; in assay [3] it was 63.1 nM.
Consider `Nc1ncnc2c1c(F)cn2[C@@H]1O[C@H](COc2ccc3cccnc3c2)[C@@H](O)[C@H]1O` [Compound 44], for which the IC50 was 251 nM in assay [1] (setting [4]), 63.1 nM in assay [2] and 126 nM in assay [3].
For `COc1ccc2ccc(OC[C@H]3O[C@@H](n4ccc5c(N)ncnc54)[C@H](O)[C@@H]3O)cc2n1` [Compound 19], in that order: > 20000 nM, 1580 nM and 3160 nM.
In general, pIC50 refers to the IC50 on a negative log10 scale, so that one unit is a factor of ten. Low values mean a high IC50, high ones a low IC50. Turning to `Nc1ncnc2c1ccn2[C@@H]1C[C@H](OCc2ccc3cccnc3c2)[C@@H](O)[C@H]1O` [Compound 64], in assay [1] (setting [4]), the IC50 was ~1070 nM. The negative-log IC50 (pIC50) was 6.90 in assay [2] (pIC50 Assay 1a) and 6.10 in assay [3].
`CC(C)C(=O)O[C@@H]1[C@H](OC(=O)C(C)C)[C@@H](COc2ccc3cc(Br)cnc3c2)O[C@H]1n1ccc2c(N)ncnc21` [Compound 73]: the IC50 in assay [1] (setting [4]) is 100 nM; in assay [2] it was > 10000 nM; in assay [3], > 100000 nM.
As to `Nc1ncnc2c1ccn2[C@@H]1O[C@H](COc2cccc3cnccc23)[C@@H](O)[C@H]1O` [Compound 6], the IC50 in assay [1] (setting [4]) was > 10000 nM; in assay [2], 3160 nM; in assay [3], 5010 nM.
The like results for `CNc1ccc2ccc(CC[C@H]3O[C@@H](n4ccc5c(N)ncnc54)[C@H](O)[C@@H]3O)cc2n1` [Compound 137] were, in that order, 6.31 nM, 1.58 nM and 20 nM.
For `COCc1cnc2cc(OC[C@H]3O[C@@H](n4ccc5c(N)ncnc54)[C@H](O)[C@@H]3O)ccc2c1` [Compound 120], in that order: 316 nM, 79.4 nM and 316 nM.
Consider `Cc1nc(N)c2ccn([C@@H]3O[C@H](CNc4ccc5cc(Br)cnc5c4)[C@@H](O)[C@H]3O)c2n1` [Compound 53], for which the values for the IC50 in assay [1] (setting [4]), in assay [2] and in assay [3] were 50.1 nM, 39.8 nM and 50.1 nM, respectively.
As for `Nc1ncnc2c1ccn2[C@@H]1O[C@H](CCc2ccc3ccncc3c2)[C@@H](O)[C@H]1O` [Compound 103], the values for the IC50 in assay [1] (setting [4]), in assay [2] and in assay [3] were 7940 nM, 398 nM and 1260 nM, respectively.
For `Nc1ncnc2c1ccn2[C@@H]1O[C@H](CCc2ccc3ccc(NCc4ccc(Cl)cc4)nc3c2)[C@@H](O)[C@H]1O` [Compound 135], in that order: ~2.82 nM, 1 nM and 6.31 nM.
For `Nc1ncnc2c1ccn2[C@@H]1O[C@H](COc2cc3ncc(Br)cc3cc2F)[C@@H](O)[C@H]1O` [Compound 106], in that order: 398 nM, 63.1 nM and 158 nM.
For `Nc1ncnn2c([C@@H]3O[C@H](/C=C/c4ccc5cccnc5c4)[C@@H](O)[C@H]3O)ccc12` [Compound 61], the figures for the IC50 in assay [1] (setting [4]), in assay [2] and in assay [3] were ~1320 nM, 398 nM and 1000 nM, respectively.
With `Nc1ncnc2c1ccn2[C@@H]1O[C@H](COc2ccc3ccnnc3c2)[C@@H](O)[C@H]1O` [Compound 69], the IC50 in assay [1] (setting [4]) is > 20000 nM; in assay [2] it was 631 nM; in assay [3], 3160 nM.
For the compound `Nc1ccc2ccc(OC[C@H]3O[C@@H](n4ccc5c(N)ncnc54)[C@H](O)[C@@H]3O)cc2n1` [Compound 218], the IC50 in assay [1] (setting [5]) is 5.01 nM; in assay [2] it was 2.51 nM; in assay [3], 5.01 nM.
On to `Cc1ncnc2c1ccn2[C@@H]1O[C@H](CCc2ccc3ccc(N)nc3c2)[C@@H](O)[C@H]1O` [Compound 192], for which the IC50 is 3.16 nM in assay [1] (setting [4]), 0.631 nM in assay [2] and 10 nM in assay [3].
In the case of `Nc1ncnc2c1ccn2[C@@H]1C[C@H](CCc2ccc3cc(Br)c(NCC4CC4)nc3c2)[C@@H](O)[C@H]1O` [Compound 148], the IC50 is 200 nM in assay [1] (setting [4]), 398 nM in assay [2] and 794 nM in assay [3].
Take `O[C@@H]1[C@H](O)[C@@H](COc2ccc3ccc(NCC4CC4)nc3c2)O[C@H]1n1ccc2c(Cl)ncnc21` [Compound 140]: the IC50 in assay [1] (setting [4]) is 794 nM; in assay [2], 6.31 nM; in assay [3], 50.1 nM.
For `CN(C[C@H]1O[C@@H](n2ccc3c(N)ncnc32)[C@H](O)[C@@H]1O)c1ccc2cc(Br)cnc2c1` [Compound 52], in that order: 398 nM, 63.1 nM and 158 nM.
The like results for `CC(C)(C)Nc1ccc2ccc(CC[C@H]3C[C@@H](n4ccc5c(N)ncnc54)[C@H](O)[C@@H]3O)cc2n1` [Compound 150] were, in that order, 31.6 nM, 1 nM and 15.8 nM.
The like results for `Nc1ncnc2c1ccn2[C@@H]1O[C@H](CCc2ccc3ccc(NCC4CC4)nc3c2)[C@@H](O)[C@H]1O` [Compound 139] were, in that order, 6.31 nM, 1.26 nM and 10 nM.
In the case of `CC(C)Cc1cnc2cc(OC[C@H]3O[C@@H](n4ccc5c(N)ncnc54)[C@H](O)[C@@H]3O)ccc2c1` [Compound 112], the IC50 in assay [1] (setting [4]) is 398 nM; in assay [2], 50.1 nM; in assay [3], 200 nM.
The like results for `Nc1nc(Cl)nc2c1ccn2[C@@H]1O[C@H](COc2ccc3cc(Cl)cnc3c2)[C@@H](O)[C@H]1O` [Compound 4] were, in that order, ~617 nM, 63.1 nM and 200 nM.
As to `Cc1ccc2ccc(OC[C@H]3O[C@@H](n4ccc5c(N)ncnc54)[C@H](O)[C@@H]3O)cc2n1` [Compound 21], the figures for the IC50 in assay [1] (setting [4]), in assay [2] and in assay [3] were 5010 nM, 1260 nM and 1580 nM, respectively.
For the compound `Nc1ccc2ccc(CC[C@H]3O[C@@H](n4ccc5c(Cl)ncnc54)[C@H](O)[C@@H]3O)cc2n1` [Compound 133], the IC50 in assay [1] (setting [4]) was 6.31 nM; in assay [2] it was 0.631 nM; in assay [3] it was 6.31 nM.
As to `Nc1ncnc2c1ccn2[C@@H]1O[C@H](COc2cc3ncccc3cc2I)[C@@H](O)[C@H]1O` [Compound 3], the IC50 is 631 nM in assay [1] (setting [4]), 39.8 nM in assay [2] and 158 nM in assay [3].
The like results for `Nc1ncnc2c1ccn2[C@@H]1O[C@H](COc2ccc3cnccc3c2)[C@@H](O)[C@H]1O` [Compound 12] were, in that order, > 10000 nM, 1580 nM and 3980 nM.
The like results for `N#Cc1cnc2cc(OC[C@H]3O[C@@H](n4ccc5c(N)ncnc54)[C@H](O)[C@@H]3O)ccc2c1` [Compound 98] were, in that order, 10000 nM, 631 nM and 1580 nM.
The like results for `Cc1ccnc2cc(OC[C@H]3O[C@@H](n4ccc5c(N)ncnc54)[C@H](O)[C@@H]3O)ccc12` [Compound 32] were, in that order, 501 nM, 39.8 nM and 126 nM.
Regarding `CN(C[C@H]1O[C@@H](n2ccc3c(Cl)ncnc32)[C@H](O)[C@@H]1O)c1ccc2cc(Br)cnc2c1` [Compound 86], the results for the IC50 in assay [1] (setting [4]), in assay [2] and in assay [3] were 5010 nM, 2510 nM and 1000 nM, respectively.
With `Nc1ncnc2c1ccn2[C@@H]1C[C@H](CCc2ccc3cccnc3c2)[C@@H](O)[C@H]1O` [Compound 56], the IC50 was 7.94 nM in assay [1] (setting [5]), 6.31 nM in assay [2] and 15.8 nM in assay [3].
With `Nc1ccc2ccc(OC[C@H]3O[C@@H](n4ccc5c(Cl)ncnc54)[C@H](O)[C@@H]3O)cc2n1` [Compound 130], the IC50 in assay [1] (setting [4]) was 12.6 nM; in assay [2] it was 0.631 nM; in assay [3] it was 7.94 nM.
The like results for `Nc1ncnc2c1ccn2[C@@H]1O[C@H](COc2ccc3cc(F)cnc3c2)[C@@H](O)[C@H]1O` [Compound 24] were, in that order, 794 nM, 39.8 nM and 126 nM.
In the case of `Nc1ncnn2c([C@@H]3O[C@H](COc4ccc5cccnc5c4)[C@@H](O)[C@H]3O)ccc12` [Compound 60], the IC50 in assay [1] (setting [4]) was 1260 nM; in assay [2], 251 nM; in assay [3], 398 nM.
For `Nc1ncnc2c1ccn2[C@@H]1C[C@H](CCc2ccc3cc(Cl)cnc3c2)[C@@H](O)[C@H]1O` [Compound 58], in that order: 39.8 nM, 12.6 nM and 20 nM.
